Data on two molecules can be found in US20230248745A1, “SILVER ENHANCED CANNABINOID ANTIBIOTICS” (priority 2020, published 2023).

Read-outs that look alike come from different tables or passages of the source.

Assay [1] deals with MRSA (strain USA300). Kind of assay: Kill-curve test (CFU over time). It is filed as cell-based, Methicillin-resistant Staphylococcus aureus. On the procedure:
(§1) Antibacterial growth was measured using a checkerboard analysis or qualitatively using agar plates with zones of inhibition. Viability was measured by the number of colony forming units (CFU) over time.
(§2) MRSA strain, USA300, was cultured in Luria-Bertani (LB) medium and inoculated at 37 C.
(§3) For each test tube, 1 mL of culture at OD600 of 0.005 was added to 1 mL of LB medium containing antibiotics to reach target sub-MIC concentrations of each compound. Samples of 100 μL was extracted from each tube at the determined time stamps followed by 10-fold serial dilutions. 10 μL of each dilution was then added on the LB agar plates that were subsequently incubated for 24 hours. Colonies were inspected and results quantified as log CFU/mL.

A further assay deals with MRSA (USA300). Kind of assay: Checkerboard assay, FICI of cannabinoid/silver combinations. The class given is cell-based, Methicillin-resistant Staphylococcus aureus. How it is done:
as §1
(§4) Using checkerboard analysis, the fractional inhibitory concentration index (FICI) was calculated for the 96-well plate test to illustrate synergy.
as §2
(§5) Cannabinoids or silver (expressed as the concentration of silver not the salt) were serially diluted 2-fold across the 96-well plate (Costar, catalog no. 3370) followed by addition of 100 μL of bacterial cultures with an OD600 of 0.0025. […] Wells turbidity were then analyzed using Varioskan™ microplate reader.
(§6) FICI was calculated in a checkerboard assay based on the turbidity of the wells. FIC of each agent was determined as the ratio of the minimal inhibitory concentration MIC of one agent in the presence of the other agent to the MIC of that agent alone. FICI was consequently computed as the sum of each agent's FIC.

In a further assay the test system is MRSA. In words: Agar plate test of CBGA with silver nanoparticles. The class given is cell-based, Methicillin-resistant Staphylococcus aureus. How it is done: Four LB agar plates were prepared with MRSA culture at OD600 of 0.005. (FIG. 4) Each plate contained different concentrations of CBGA (no CBGA, ½ MIC, ¼ MIC, and ⅛ MIC). All plates were then divided into quadrants, each of which received 8 μL of AgNP at different concentrations from 20 mg/L serially diluted by 2-fold down to 2.5 mg/L in 0.2 mM sodium citrate.

For a further assay, the system named is MRSA (strain USA 300). It is filed as cell-based, Methicillin-resistant Staphylococcus aureus. How it is done: PVA films were made by solvent casting using 33 μl drops of 2.5% PVA (88% hydrolyzed, 125 KDa molecular weight) mixed with CBC, CBG or CBGA (2% w/w to PVA). […] 3 mm sections of a urethral catheter (BARDEX® BARD®) were cut and coated with the same 33 μl volume of PVA/Silver/cannabinoid used to make films. Films and coated catheter sections were dried overnight in the dark. Five cavities were created in the LB agar plates containing MRSA (strain USA 300) at OD600 of 0.005. PVA films and catheters coated with PVA films were then placed in the cavities and moistened with 20 μL of deionized distilled water. Plates were incubated for 24 hours at 37° C.

In assay [2] the test system is MRSA (strain USA300). Kind of assay: microbe, parasite or virus in culture. It is filed as cell-based, Methicillin-resistant Staphylococcus aureus. To be noted: Staphylococcus aureus; agent alone; silver expressed as silver; read-out: MIC.
Description: In therapeutic applications, synergy between active ingredients occurs when an observed combined therapeutic effect is greater than the sum of therapeutic effects of individual active ingredients, or a new therapeutic effect is produced that the active ingredients could not produce alone. […] In this context, the enhancement of therapeutic effect may take the form of increased efficacy or potency and/or decreased adverse effects. The synergistic effect may be mediated in whole or in part by the pharmacokinetics and/or pharmacodynamics of the active ingredients in a subject, so that the amount and proportion of the ingredients in the formulation may be synergistic in vivo. This in vivo synergy may be effected with a formulation that includes the active ingredients in amounts and proportions that are also synergistic in in vitro assays of efficacy. As used herein, the term “synergistically effective amounts” accordingly refers to amounts that are synergistic in vivo and/or in vitro. A numeric quantification of synergy is often expressed as a fractional inhibitory concentration index (FICI), which represents the sum of the fractional inhibitory concentrations (FICs) of each drug tested, where the FIC is determined for each drug by dividing the minimum inhibitory concentration (MIC, the lowest concentration of the drug which prevents visible growth of the bacterium in a standard in vitro assay—standard colorometric assay based on resazurin) of each drug when used in combination by the MIC of each drug when used alone. In very general terms, a FICI lower or higher than 1 indicates positively correlated activity (at least additive or potentiation) or an absence of positive interactions, respectively. […] (as described and used by Joung D K et al. and Rakoliya K et al.)
as §5

The test system of the next assay is E. coli strain K12. In words: Checkerboard assay, FICI of cannabinoid/silver combinations. The class given is cell-based, Escherichia coli. On the procedure: as §1, §4
(§7) Escherichia coli (E. coli), strain K12, was cultured in Luria-Bertani (LB) medium and inoculated at 37 C.
as §5, §6

Assay [3] concerns E. coli (strain K12). To be noted: agent alone. The source says: In therapeutic applications, synergy between active ingredients occurs when an observed combined therapeutic effect is greater than the sum of therapeutic effects of individual active ingredients, or a new therapeutic effect is produced that the active ingredients could not produce alone. […] In this context, the enhancement of therapeutic effect may take the form of increased efficacy or potency and/or decreased adverse effects. The synergistic effect may be mediated in whole or in part by the pharmacokinetics and/or pharmacodynamics of the active ingredients in a subject, so that the amount and proportion of the ingredients in the formulation may be synergistic in vivo. This in vivo synergy may be effected with a formulation that includes the active ingredients in amounts and proportions that are also synergistic in in vitro assays of efficacy. […] A numeric quantification of synergy is often expressed as a fractional inhibitory concentration index (FICI), which represents the sum of the fractional inhibitory concentrations (FICs) of each drug tested, where the FIC is determined for each drug by dividing the minimum inhibitory concentration (MIC, the lowest concentration of the drug which prevents visible growth of the bacterium in a standard in vitro assay—standard colorometric assay based on resazurin) of each drug when used in combination by the MIC of each drug when used alone. […]

Assay [4] relates to E. coli (strain K12). In words: Kill-curve test (CFU over time). To be noted: for growth inhibition: 1.25 mg/L and 0.625 mg/L (lower concentrations). It is filed as cell-based, Escherichia coli. On the procedure:
as §1, §7, §3

The mark [5] stands for this setting: cannabinoid ½×MIC + AgNP ⅛×MIC (5 mg/L).
Where [6] appears, read: Silver Nanoparticles in combination with the cannabinoid.
Setting [7] is: cannabinoid with silver nanoparticles.

Turning to `CCCCCc1cc(O)c(C/C=C(\C)CCC=C(C)C)c(O)c1C(=O)O` [CBGA, cannabigerolic acid], the entries for the “kill-curve effect (CFU)” value in the assay with MRSA (strain USA300) [1], in the assay with MRSA (strain USA300) [1] (cannabinoid ½×MIC + AgNP 1/160×MIC (0.25 mg/L)) and in the assay on MRSA (strain USA300) [1] (setting [5]) were “nearly identical full bactericidal effect”, “strong bactericidal effect” and “full bactericidal effect”, respectively. Besides, the “time for which bactericidal effect persisted” value in the assay on MRSA (strain USA300) [1] came out at 24 h. The “MRSA growth by 24 hours” value with MRSA (strain USA300) [1] (cannabinoid alone at ½×MIC) is reported as “returned to levels approximating that of 0×MIC treatment”. The “combined inhibitory effects compared to ½×MIC combinations” value with MRSA (strain USA300) [1] (cannabinoid ¼×MIC + AgNPs) was “weaker and less durable”. In addition, the “time through which bactericidal effect persisted” value with MRSA (strain USA300) [1] (setting [5]) turned out to be 24 h. Also, the results for the FICI in the assay on MRSA (USA300) (setting [6]) and with MRSA (USA300) (Silver Nitrate in combination with the cannabinoid) were 0.375 and 0.53, respectively. For the same molecule, the “interaction (interpretation of FICI)” value with MRSA (USA300) (setting [7]) is recorded as “synergistic”; in the assay on MRSA (USA300) (cannabinoid with silver nitrate), “partial synergy”; with E. coli strain K12 (setting [7]), “potentiation”; with E. coli strain K12 (cannabinoid with silver sulfate), “potentiation”. Also, the “inhibition of MRSA growth” value in the assay on MRSA (CBGA at ½ MIC in the agar) is “strong inhibition of MRSA growth in all wells”. Moreover, the antibiotic effect entry in the assay on MRSA (CBGA at ½ MIC in the agar + 20 mg/L silver nanoparticles) is on record as “strongest antibiotic effect”. For the same molecule, the “inhibition of bacterial growth (darkening in the photo)” value in the assay with MRSA (CBGA at ⅛ MIC or ¼ MIC in agar + AgNP 2.5-20 mg/L) is recorded as “concentration dependent darkening”. In addition, the “antibiotic effect of combination compared with silver nanoparticles alone” value with MRSA (strain USA 300) (cannabinoid 2% + silver nanoparticles 2% silver w/w to PVA, films or coated catheter sections) is on record as “increased antibiotic effect”. Further, the “antibiotic effect of combination compared with silver nitrate alone” value with MRSA (strain USA 300) (cannabinoid 2% + silver nitrate 2% silver w/w to PVA) is reported as “increased antibiotic effect”. Also, the “inhibition of bacterial growth (ring)” value in the assay on MRSA (strain USA 300) (single agent at 2% w/w to PVA, films and coated catheter sections, 24 hours) is given as “some level of inhibition”. Further, the MIC in the assay with MRSA (strain USA300) [2] came out at 4 µg/mL. Further, the “FICI Silver Nanoparticles” value in the assay with E. coli strain K12 (setting [6]) came out at 0.73. Moreover, the “FICI Silver Sulfate” value in the assay on E. coli strain K12 (Silver Sulfate in combination with the cannabinoid) came to 0.75.
For the molecule `O=S(=O)([O-])[O-].[Ag+].[Ag+]` [silver sulfate], in the assay with E. coli (strain K12) [3], the MIC came to 2.5 µg/mL. The growth inhibition entry with E. coli (strain K12) [4] (AgSO4 alone) is listed as “very little inhibitory effects”. Also, the growth inhibition result with E. coli (strain K12) [4] (AgSO4 alone, listed as AgSO4) is “some initial growth inhibition”. In the assay with E. coli (strain K12) [4] (AgSO4 alone, 2.5 mg/L), the “bactericidal effects (net reduction in bacterial CFU)” value was “no bactericidal effects”, the “period of inhibition of E. coli growth” value was 6 h and the “total increase in bacterial CFU at 24 hours” value is reported as “approximately 1 log”. Besides, the “inhibitory effect on E. coli growth (summary)” value with E. coli (strain K12) [4] (silver sulfate alone at 2.5 mg/L) is “weak inhibitory effect”.
